Assay results from patent publication US20040067915A1, “Method to treat cardiofibrosis with a combination of an angiotensin II antagonist and spironolactone” (G.D. Searle & Co., priority 1995, published 2004).
pIC50: −log10 of the molar value. Read-outs that look alike come from different tables or passages of the source. Blank lines part the entries; values can stand above or below the compound they belong to.

What was measured:
[1] = target: angiotensin II AT1 receptor; assay: Assay A: Angiotensin II Binding Activity (125I-AII displacement, rat uterine membrane preparation)
Procedure: Assay A: Antiotensin II Binding Activity
Compounds of the invention were tested for ability to bind to the smooth muscle angiotensin II receptor using a rat uterine membrane preparation. […] Rat uterine membranes were prepared from fresh tissue. All procedures were carried out at 4° C. Uteri were stripped of fat and homogenized in phosphate-buffered saline at pH 7.4 containing 5 mM EDTA. The homogenate was centrifuged at 1500×g for 20 min., and the supernatant was recentrifuged at 100,000×g for 60 min. The pellet was resuspended in buffer consisting of 2 mM EDTA and 50 mM Tris-HCl (pH 7.5) to a final protein concentration of 4 mg/ml. […] The reaction was initiates by the addition of membrane protein and the mixture was incubated at 25° C. for 60 min. The incubation was terminated with ice-cold 50 mM Tris-HCl (pH 7.5) and the mixture was filtered to separate membrane-bound labelled peptide from the free ligand. The incubation tube and filter were washed with ice-cold buffer. Filters were assayed for radioactivity in a Micromedic gamma counter. Nonspecific binding was defined as binding in the presence of 10 μM of unlabelled AII. Specific binding was calculated as total binding minus nonspecific binding. […] Binding data were analyzed by a nonlinear least-squares curve fitting program.
1Assay A: Angiotensin II Binding Activity

angiotensin II = conditions: binding experiments, functional assays and in vivo tests; cited from earlier work
pressor response to AII = assay: Assay C: In vivo Intragastric Pressor Assay Response for AII Antagonists; conditions: rat; for inhibition at 3 mg/kg: po, AII pressor response
Procedure: Assay C: In vivo Intragastric Pressor Assay Response for All Antagonists
Male Sprague-Dawley rats weighing 225-300 grams were anesthetized with methohexital (30 mg/kg, i.p.) and catheters were implanted into the femoral artery and vein. The catheters were tunneled subcutaneously to exit dorsally, posterior to the head and between the scapulae. The catheters were filled with heparin (1000 units/ml of saline). The rats were returned to their cage and allowed regular rat chow and water ad libitum. After full recovery from surgery (3-4 days), rats were placed in Lucite holders and the arterial line was connected to a pressure transducer. Arterial pressure was recorded on a Gould polygraph (mmHg). Angiotensin II was administered as a 30 ng/kg bolus via the venous catheter delivered in a 50 μl volume with a 0.2 ml saline flush. The pressor response in mm Hg was measured by the difference from pre-injection arterial pressure to the maximum pressure achieved. The AII injection was repeated every 10 minutes until three consecutive injections yielded responses within 4 mmHg of each other. These three responses were then averaged and represented the control response to AII. The test compound was suspended in 0.5% methylcellulose in water and was administered by gavage. The volume administered was 2 ml/kg body weight. The standard dose was 3 mg/kg. Angiotensin II bolus injections were given at 30, 45, 60, 75, 120, 150, and 180 minutes after gavage. The pressor response to AII was measured at each time point. The rats were then returned to their cage for future testing. A minimum of 3 days was allowed between tests. Percent inhibition was calculated for each time point following gavage by the following formula: [(Control Response—Response at time point)/Control Response]×100.
3Assay C: In vivo Pressor Response

[2] = hypertensive patients, continued ACE inhibition; cited from earlier work
[3] = test system: myocardial fibrosis in animal models; conditions: cited from earlier work
[4] = target: T1, angiotensin II receptor (rabbit aortic rings) (Oryctolagus cuniculus, UniProt P34976); assay: Assay B: In vitro Vascular Smooth Muscle Response for AII (rabbit aortic rings, pA2); format: cell-based; conditions: two determinations given as a/b
T1 construct: The thoracic aorta was removed, cleaned of adherent fat and connective tissue and then cut into 3-mm ring segments; from tissue; host or cells: rabbit thoracic aorta rings, endothelium removed
T1 sequence (P34976 1-359): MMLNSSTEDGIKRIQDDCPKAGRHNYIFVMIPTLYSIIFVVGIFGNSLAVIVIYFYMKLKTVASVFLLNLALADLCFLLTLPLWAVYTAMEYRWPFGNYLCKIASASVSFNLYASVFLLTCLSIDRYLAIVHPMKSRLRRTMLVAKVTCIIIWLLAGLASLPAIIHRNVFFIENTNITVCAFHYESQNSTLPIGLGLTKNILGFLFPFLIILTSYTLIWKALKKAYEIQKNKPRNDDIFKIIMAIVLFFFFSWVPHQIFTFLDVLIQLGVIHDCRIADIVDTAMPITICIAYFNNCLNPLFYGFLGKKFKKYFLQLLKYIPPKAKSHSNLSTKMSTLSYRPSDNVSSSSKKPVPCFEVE
Procedure: Assay B: In vitro Vascular Smooth Muscle-response for AII
The compounds of the invention were tested for antagonist activity in rabbit aortic rings. Male New Zealand white rabbits (2-2.5 kg) were sacrificed using an overdose of pentobarbital and exsanguinated via the carotid arteries. The thoracic aorta was removed, cleaned of adherent fat and connective tissue and then cut into 3-mm ring segments. The endothelium was removed from the rings by gently sliding a rolled-up piece of filter paper into the vessel lumen. The rings were then mounted in a water-jacketed tissue bath, maintained at 37° C., between moveable and fixed ends of a stainless steel wire with the moveable end attached to an FT03 Grass transducer coupled to a Model 7D Grass Polygraph for recording isometric force responses. […] The preparations were equilibrated for one hour before approximately one gram of passive tension was placed on the rings. Angiotensin II concentration-response curves were then recorded (3×10^−10 to 1×10^−5 M). Each concentration of AII was allowed to elicit its maximal contraction, and then AII was washed out repeatedly for 30 minutes before rechallenging with a higher concentration of AII. Aorta rings were exposed to the test antagonist at 10^−5 M for 5 minutes before challenging with AII. Adjacent segments of the same aorta ring were used for all concentration-response curves in the presence or absence of the test antagonist. The effectiveness of the test compound was expressed in terms of pA2 values and were calculated according to H. O. Schild [Br. J. Pharmacol. Chemother., 2, 189-206 (1947)]. The pA2 value is […] which increases the EC50 value for AII by a factor of two. Each test antagonist was evaluated in aorta rings from two rabbits.
2Assay B: In vitro Vascular Smooth Muscle Response

pIC50 [1]: 4.77
Structure (SMILES): CCCCc1nc(Cl)n(Cc2ccc(-c3ccccc3C(=O)O)cc2)n1 [Compound 8]

Structure (SMILES): CCCCc1nc(Cl)c(CC(=O)[O-])n1Cc1ccccc1Cl.[Na+] [sodium salt of 2-n-butyl-4-chloro-1-(2-chlorobenzyl)imidazole-5-acetic acid]
angiotensin II antagonist activity (angiotensin II): specific competitive angiotensin II antagonist activity

pIC50 [1]: 5.89
Structure (SMILES): CCCCc1nc(Cl)nn1Cc1ccc(-c2ccccc2C(=O)O)cc1 [Compound 6]
Assay C Duration (pressor response to AII; dose 100 mg/kg): 120 min

pIC50 [1]: 7.70
Structure (SMILES): CCCCc1cn(CC2CCCCC2)c(=O)n1Cc1ccc(-c2ccccc2-c2nnn[nH]2)nc1 [Compound 205]
Assay C Duration (pressor response to AII; dose 3 mg/kg): >180 min | inhibition at 3 mg/kg (pressor response to AII; dose 3 mg/kg): 40%

pIC50 [1]: 6.15
Structure (SMILES): CCCCc1nc(Cl)n(Cc2ccc(-c3ccccc3-c3nnn[nH]3)cc2)n1 [Compound 9]
Assay C Duration (pressor response to AII; dose 30 mg/kg): 75 min | Assay C Duration (pressor response to AII; dose 100 mg/kg): 130 min

pIC50 [1]: 7.08
Structure (SMILES): CCCCc1nc(Cl)nn1Cc1ccc(-c2ccccc2-c2nnn[nH]2)cc1 [Compound 7]
Assay C Duration (pressor response to AII; dose 30 mg/kg): 130 min

pIC50 [1]: 7.80
Structure (SMILES): CCCc1nc(CCC)n(Cc2ccc(-c3ccccc3-c3nnn[nH]3)cc2)n1 [Compound 15]

Structure (SMILES): C[C@H](CS)C(=O)N1CCC[C@H]1C(=O)O [captopril]
plasma aldosterone [2]: gradual return of plasma aldosterone to baseline levels

pIC50 [1]: 8.19
Structure (SMILES): CCCc1nc(CCC(C)C)n(Cc2ccc(-c3ccccc3-c3nnn[nH]3)cc2)n1 [Compound 16]

pIC50 [1]: 6.80
Structure (SMILES): CCCCc1nc(C(F)(F)CCC)n(Cc2ccc(-c3ccccc3-c3nnn[nH]3)cc2)n1 [Compound 11]

pIC50 [1]: 7.14
Structure (SMILES): CCCCc1nc(CCC)nn1Cc1ccc(-c2ccccc2-c2nnn[nH]2)nc1 [Compound 246]

Structure (SMILES): CC(=O)S[C@@H]1CC2=CC(=O)CC[C@]2(C)[C@H]2CC[C@@]3(C)[C@@H](CC[C@@]34CCC(=O)O4)[C@H]12 [spironolactone, 17-hydroxy-7α-mercapto-3-oxo-17α-pregn-4-ene-21-carboxylic acid γ-lactone acetate]
myocardial fibrosis [3]: prevents myocardial fibrosis in animal models | myocardial fibrosis ([3]; listed as Spironolactone): prevent fibrosis in animal models irrespective of the development of left ventricular hypertrophy and the presence of hypertension

pIC50 [1]: 8.31
Structure (SMILES): CCCCc1nc(C(F)(F)CCC)nn1Cc1ccc(-c2ccccc2-c2nnn[nH]2)cc1 [Compound 10]
Assay C Duration (pressor response to AII; dose 3 mg/kg): 100 min | Assay C Duration (pressor response to AII; dose 30 mg/kg): 240 min

Structure (SMILES): CCCCc1nc(Cl)c(CC(=O)[O-])n1Cc1ccccc1[N+](=O)[O-].[Na+] [sodium salt of 2-butyl-4-chloro-1-(2-nitrobenzyl)imidazole-5-acetic acid]
angiotensin II antagonist activity (angiotensin II): specific competitive angiotensin II antagonist activity

pIC50 [1]: 7.29
Structure (SMILES): CCCCc1cn(C2C3CC4CC(C3)CC2C4)c(=O)n1Cc1ccc(-c2ccccc2-c2nnn[nH]2)nc1 (stereo not drawn) [Compound 213]

pIC50 [1]: 8.27 | Kb [4]: 2 nM
Structure (SMILES): CCCCc1nc(CCCC)n(Cc2ccc(-c3ccccc3-c3nnn[nH]3)cc2)n1 [Compound 3]
Assay C Duration (pressor response to AII; dose 10 mg/kg): >180 min | Assay C Duration (pressor response to AII; dose 30 mg/kg): 200^+ min.

pIC50 [1]: 6.70
Structure (SMILES): CCCCc1nc(CCCC)n(Cc2ccc(-c3ccccc3C(=O)NNS(=O)(=O)C(F)(F)F)cc2)n1 [Compound 5]
Assay C Duration (pressor response to AII; dose 30 mg/kg): 20 to 30 min

pIC50 [1]: 7.37
Structure (SMILES): CCCCc1nc(CC(CC)CC)n(Cc2ccc(-c3ccccc3-c3nnn[nH]3)nc2)n1 [Compound 250]
inhibition at 3 mg/kg (pressor response to AII; dose 3 mg/kg): 0%

pIC50 [1]: 8.15
Structure (SMILES): CCCCc1nc(-c2ccccc2)nn1Cc1ccc(-c2ccccc2-c2nnn[nH]2)cc1 [Compound 21]
